Data published in PubChem BioAssay (NCI).
Where a name gives a salt, the structure may show the parent alone.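 Test compounds were applied to cells in 96-well plates for 48 hours at 5 doses. GI50: concentration for 50% inhibition of growth. TGI marks complete inhibition of growth.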 *1 amine or outer side, *2 acyl side, *3 side chain or, on linkers, in order; H or OH if unused. Where a SMILES comes first, the peptide text is derived from it. [ ]: non-standard residue; d: D form. The star is where a group is joined. X31 = CC(=O)N(C)SCC(N[*:1])C(=O)[*:2]; X47 = CC(=O)N(C)SCC(N*)/C(O)=N\O; Cbz = O=C(OCc1ccccc1)*; Tfa = O=C(C(F)(F)F)*; Bn = c1ccc(C*)cc1; For = O=C*

Legend:
Assay in all cases: DTP human tumour cell line panel, 48 h
786-0 renal = tested on: 786-0 renal
HCT-116 colon = tested on: HCT-116 colon
HT29 colon = tested on: HT29 colon
MCF7 breast = tested on: MCF7 breast
PC-3 prostate = tested on: PC-3 prostate
SN12C renal = tested on: SN12C renal
BT-549 breast = tested on: BT-549 breast
NCI-H522 lung = tested on: NCI-H522 lung
RPMI-8226 leukemia = tested on: RPMI-8226 leukemia
A498 renal = tested on: A498 renal

Structure (SMILES) | TGI (786-0 renal) [µM] | TGI (HCT-116 colon) [µM] | TGI (HT29 colon) [µM] | TGI (MCF7 breast) [µM] | TGI (PC-3 prostate) [µM] | TGI (SN12C renal) [µM] | TGI (BT-549 breast) [µM] | TGI (NCI-H522 lung) [µM] | TGI (RPMI-8226 leukemia) [µM] | TGI (A498 renal) [µM] | GI50 (BT-549 breast) [µM] | GI50 (A498 renal) [µM] | GI50 (HT29 colon) [µM] | GI50 (MCF7 breast) [µM] | GI50 (NCI-H522 lung) [µM] | GI50 (HCT-116 colon) [µM] | GI50 (PC-3 prostate) [µM] | GI50 (RPMI-8226 leukemia) [µM] | GI50 (SN12C renal) [µM]
Oc1ccc(-c2csc(NNC3=NC/C(=C/c4ccc5c(c4)OCO5)S3)n2)cc1O | > 100 | > 100 | > 100 | > 100 | > 100 | > 100 |  |  |  |  |  |  |  |  |  |  |  |  | 
CC(=O)N(C)SCC(NC(=O)C(Cc1ccccc1)NC(=O)OCc1ccccc1)C(=O)NC(Cc1ccccc1)C(=O)NC(Cc1cn(C=O)c2ccccc12)C(=O)NC(CCCCNC(=O)OCc1ccccc1)C(=O)NC(C(=O)NC(CSN(C)C(C)=O)/C(O)=N\O)C(C)OCc1ccccc1 (configuration not stated) (Cbz-F[X31]FW(For)K(Cbz)T(Bn)-X47; configuration not given here) | > 100 | > 100 | > 100 | > 100 | > 100 | > 100 | > 100 | > 100 | > 100 |  |  |  |  |  |  |  |  |  | 
COc1ccc(/C=C2\CCC(C)C3=C(c4ccc(OC)c(OC)c4)C(C#N)=C(N)OC32)cc1OC (configuration not stated) | 25.1 | 20.2 |  | 19.5 | 38.1 | 28.2 | 24.5 |  | 5.76 | 51.9 |  |  |  |  |  |  |  |  | 
C=CCn1c(=O)c2ccccc2[n+]2c(C)c(C(=O)OCC)sc12 | > 100 | > 100 | > 100 | > 100 | > 100 | > 100 | > 100 | > 100 | > 100 |  |  |  |  |  |  |  |  |  | 
O=C(O)CC(NC(=O)C(F)(F)F)C(=O)NC(Cc1ccc(O)cc1)C(=O)O (stereo not drawn) (Tfa-Asp-Tyr-OH; configuration not given here) | > 50 |  | > 50 | > 50 | > 50 | > 50 | > 50 | > 50 | > 50 |  |  |  |  |  |  |  |  |  | 
N#CN=C(N)c1sc2nc3c(c(-c4ccc(Br)cc4)c2c1N)CCCC3 | 50.2 | 33.1 | 48.8 | > 100 | 52.7 | 58.1 |  |  | 56.5 | 43.1 |  |  |  |  |  |  |  |  | 
CC1CC(C)C(O)C(C2CC(CC(=O)NC3CCCCC3)CC(=O)O2)C1 (configuration not stated) | > 100 | > 100 | > 100 | > 100 | > 100 | > 100 |  | > 100 | > 100 | > 100 |  |  |  |  |  |  |  |  | 
COC(=O)c1c2c(cc3c1CC1(Cc4cc5c(c(C=O)c4C1)CCCC5)C3)CCCC2 (configuration not stated) | > 100 | 47.3 | > 100 | 87.2 | > 100 | > 100 |  | > 100 | > 100 | > 100 |  |  |  |  |  |  |  |  | 
CN(C)c1ccc(/C=c2/c3ccccc3n3c2c2ccccc2[n+]3C)cc1 | 1.69 | 2.74 |  | 5.46 | 1.54 | 2.55 | 1.03 | 0.619 | 0.581 | 5.14 |  |  |  |  |  |  |  |  | 
CCOC(=O)c1cnn2c1ncc1c(=O)n(NC(N)=O)ccc12 | > 100 | > 100 | > 100 | > 100 | > 100 | > 100 | > 100 | > 100 |  | > 100 |  |  |  |  |  |  |  |  | 
Cc1cc(N(CCC#N)CCC#N)ccc1/C=C1N=C(/C=C\c2ccccc2)OC\1=O | > 100 | > 100 | > 100 |  |  | > 100 |  | > 100 | > 100 | > 100 |  |  |  |  |  |  |  |  | 
C=C(CN(C)C)C(=O)c1ccccc1C | 35.8 | > 57.1 | > 100 |  |  | > 78.1 |  | 12.3 | 48.6 | > 100 |  |  |  |  |  |  |  |  | 
Cc1ccccc1C(=O)c1c(O)c2c(c(O)c1Br)CCCC2 | 27.9 | 30.2 | 66.6 |  |  | 33.3 |  | 23.4 | 57.5 | 43.7 |  |  |  |  |  |  |  |  | 
O=S(=O)(O)c1c(Cl)cc(O)c2ncccc12 | > 100 | > 100 | > 100 | > 100 | > 100 | > 100 | > 100 |  | > 100 | > 100 |  |  |  |  |  |  |  |  | 
CC(=O)[C@@H]1[C@@H](OC(=O)CCC(C)COC2OC(CO)C(O)C(O)C2O)C[C@H]2[C@@H]3CC=C4C[C@@H](OC5OC(CO)C(OC6OC(C)C(O)C(O)C6O)C(O)C5OC5OC(C)C(O)C(O)C5O)CC[C@]4(C)[C@H]3CC[C@]12C (some centres not stated) | > 100 | > 100 |  | > 100 | > 100 | > 100 | > 100 | 97 | > 100 | > 100 |  |  |  |  |  |  |  |  | 
COC1=C2CC(C)CC(OC)C(O)C(C)/C=C(\C)C(OC(N)=O)C(OC)/C=C\C=C(/C)C(=O)NC(=C(C=NC(C)(C)C)C1=O)C2=O (configuration not stated) |  | 16.2 | 21 | 35.7 |  | 21 |  | 1.63 | 13.5 | 23.6 |  |  |  |  |  |  |  |  | 
CC[C@@]1(N(C)C)C(=O)OCc2c1cc1n(c2=O)Cc2cc3ccccc3nc2-1 | 73.7 | > 100 |  | > 100 | > 100 |  | 39.5 | 28.7 | > 100 | > 100 |  |  |  |  |  |  |  |  | 
NCC(=O)NC1(c2cc3ccccc3s2)CCCCC1 | > 100 | > 100 | 54.8 | > 100 |  | > 100 | > 100 | > 100 | 45.2 | > 100 |  |  |  |  |  |  |  |  | 
ClCCCN(CCCCl)c1ccc(C=Nc2cccc(Cl)c2)cc1 | > 67.2 | > 66.6 | > 100 | > 70.4 | 50.7 | > 79.7 | > 100 | > 100 | 55 |  | 71.2 |  |  |  |  |  |  |  | 
CCS(=O)(=O)N1CCC(C(C)n2c(C)c(C(=O)NCc3c(OC)cc(C)[nH]c3=O)c3ccccc32)CC1 (configuration not stated) |  |  | > 100 | > 100 |  |  |  | > 100 |  | > 100 |  | > 100 | > 100 | 25.8 | > 100 |  |  |  | 
O=C(Nc1cccc(-n2ccc3c(NC(=O)c4ccccc4)nccc32)c1)c1ccc(N2CCOCC2)c(C(F)(F)F)c1 |  | > 100 |  | > 73.5 | > 100 | > 100 | > 67.7 | 0.545 | 13.1 | 4.72 | 0.183 | 0.0357 | 0.038 | 0.0397 | 0.0319 | 0.0371 | 0.0538 | 0.0545 | 0.134
